This is an account of results in ChEMBL document CHEMBL6182866, “Design, synthesis, molecular docking and ADME of novel phenylalanine derivatives as mushroom tyrosinase inhibitors” (Bioorg Med Chem Lett, 2025).

Activity calls are given as the source filed them. No cut-off for these calls is given here. Where only a bound is given, the exact number is not on record here.

One experiment concerns the target Mushroom tyrosinase (Agaricus bisporus, UniProt O42713+Q00024+C7FF04+C7FF05). Put plainly: Inhibition of mushroom tyrosinase using L-DOPA as substrate assessed as reduction in diphenolase activity. The experiment is classed as protein assay.
Experiment [1] concerns the target T1, Mushroom tyrosinase (Agaricus bisporus) (UniProt O42713+Q00024+C7FF04+C7FF05). Description: Competitive inhibition of mushroom tyrosinase using L-DOPA as substrate assessed as increase in Km with constant Vmax up to 10 uM by Lineweaver-Burk plot analysis. It counts as protein assay.
Experiment [2] has as its target T1, Mushroom tyrosinase (Agaricus bisporus). Put plainly: Reversible inhibition of mushroom tyrosinase using L-DOPA as substrate up to 10 uM. It counts as protein assay.
Experiment [3] addresses T2, Tyrosinase (Homo sapiens) (UniProt P14679).
T2 sequence (whole entry): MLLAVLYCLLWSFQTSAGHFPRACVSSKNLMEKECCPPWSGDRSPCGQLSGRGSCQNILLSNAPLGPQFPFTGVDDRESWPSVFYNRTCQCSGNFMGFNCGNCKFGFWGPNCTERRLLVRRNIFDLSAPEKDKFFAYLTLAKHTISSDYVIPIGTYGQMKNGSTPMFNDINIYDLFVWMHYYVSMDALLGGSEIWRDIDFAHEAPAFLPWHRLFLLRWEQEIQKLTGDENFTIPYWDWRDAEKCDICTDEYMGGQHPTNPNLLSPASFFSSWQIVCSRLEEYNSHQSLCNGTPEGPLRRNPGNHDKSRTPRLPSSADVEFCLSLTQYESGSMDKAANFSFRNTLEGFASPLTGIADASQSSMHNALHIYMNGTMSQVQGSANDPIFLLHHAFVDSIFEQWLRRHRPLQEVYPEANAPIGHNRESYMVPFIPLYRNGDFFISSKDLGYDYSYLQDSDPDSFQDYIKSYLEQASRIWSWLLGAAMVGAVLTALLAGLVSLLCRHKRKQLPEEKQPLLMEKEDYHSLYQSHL
Put plainly: Inhibition of human TYR using L-DOPA as substrate assessed as reduction in diphenolase activity by absorbance based assay.

The IC50 is the concentration that inhibits the measured activity by half. As to `CC(C)C(=O)Nc1nc(-c2ccc(O)cc2O)cs1`, the IC50 at Mushroom tyrosinase stood at 48.12 µM.

As to `O=C(O)C(Cc1ccccc1)NCc1ccc([N+](=O)[O-])cc1` (configuration not stated), the IC50 at Mushroom tyrosinase is 42.4 µM.

With `O=C(O)C(Cc1ccccc1)NCc1ccc(Cl)cc1Cl` (configuration not stated), on Mushroom tyrosinase, the IC50 was > 100 µM.

Turning to `O=C(OCc1cc(=O)c(O)co1)C(Cc1ccccc1)NCc1ccc(Br)cc1` (configuration not stated), the IC50 at Mushroom tyrosinase was found to be 15.26 µM.

With `O=C(OCc1ccc(F)cc1)C(Cc1ccccc1)NCc1ccc(Br)cc1` (configuration not stated), the IC50 on Mushroom tyrosinase was 16.07 µM.

For the molecule `O=C(OCc1cc(=O)c(O)co1)C(Cc1ccccc1)NCc1ccc(Cl)cc1Cl` (configuration not stated), the inhibition result in experiment [1] and in experiment [2] was “Active” throughout. For the same molecule, at Mushroom tyrosinase, the IC50 was determined as 10.35 µM.

Regarding `O=C(OCc1ccc(F)cc1)C(Cc1ccccc1)NCc1ccc(Cl)c([N+](=O)[O-])c1` (configuration not stated), at Mushroom tyrosinase, the IC50 worked out at 6.11 µM.

`O=C(O)C(Cc1ccccc1)NCc1ccc(Br)cc1` (configuration not stated): the IC50 at Mushroom tyrosinase worked out at 31.05 µM.

On to `O=C(OCc1ccc(F)cc1)C(Cc1ccccc1)NCc1ccc([N+](=O)[O-])cc1` (configuration not stated), for which the IC50 on Mushroom tyrosinase turned out to be 11.77 µM.

`O=C(OCc1cc(=O)c(O)co1)C(Cc1ccccc1)NCc1ccc(Cl)c([N+](=O)[O-])c1` (configuration not stated): on Mushroom tyrosinase, the IC50 was determined as 11.65 µM.

Turning to `O=C(OCc1ccc([N+](=O)[O-])cc1)C(Cc1ccccc1)NCc1ccc(Cl)c([N+](=O)[O-])c1` (configuration not stated), the inhibition entry in experiment [1] and in experiment [2] was “Active” in each case. For the same molecule, the IC50 at Mushroom tyrosinase was found to be 4.86 µM. Besides, the inhibition result in experiment [3] was “Dose-dependent-effect”.

For the molecule `O=C(OCc1ccc(F)cc1)C(Cc1ccccc1)NCc1ccccc1Cl` (configuration not stated), the IC50 at Mushroom tyrosinase worked out at 18.2 µM.

`O=c1cc(CCl)occ1O`: at Mushroom tyrosinase, the half-maximal inhibitory concentration (IC50) was found to be 33.05 µM.

As for `O=C(OCc1cc(=O)c(O)co1)C(Cc1ccccc1)NCc1ccccc1Cl` (configuration not stated), the IC50 at Mushroom tyrosinase was 20.64 µM.

For `O=C(OCc1ccc(F)cc1)C(Cc1ccccc1)NCc1ccc(Cl)cc1Cl` (configuration not stated), on Mushroom tyrosinase, the IC50 came to 8.33 µM.

As to `O=C(OCc1cc(=O)c(O)co1)C(Cc1ccccc1)NCc1ccc([N+](=O)[O-])cc1` (configuration not stated), the IC50 on Mushroom tyrosinase turned out to be 13.43 µM.

Consider `O=C(OCc1ccc([N+](=O)[O-])cc1)C(Cc1ccccc1)NCc1ccc(Br)cc1` (configuration not stated), for which, on Mushroom tyrosinase, the IC50 was determined as 11.95 µM.

As for `O=C(OCc1ccc([N+](=O)[O-])cc1)C(Cc1ccccc1)NCc1ccccc1Cl` (configuration not stated), the IC50 on Mushroom tyrosinase came out at 16.99 µM.

Regarding `O=C(OCc1ccc([N+](=O)[O-])cc1)C(Cc1ccccc1)NCc1ccc(Cl)cc1Cl` (configuration not stated), at Mushroom tyrosinase, the IC50 was 6.78 µM.

For the molecule `O=C(O)C(Cc1ccccc1)NCc1ccc(Cl)c([N+](=O)[O-])c1` (configuration not stated), the IC50 at Mushroom tyrosinase was > 100 µM.

`O=C(OCc1ccc([N+](=O)[O-])cc1)C(Cc1ccccc1)NCc1ccc([N+](=O)[O-])cc1` (configuration not stated): the IC50 on Mushroom tyrosinase was 10.58 µM.

Take `O=C(O)C(Cc1ccccc1)NCc1ccccc1Cl` (configuration not stated): the concentration for half-maximal inhibition (IC50) on Mushroom tyrosinase was > 100 µM.
